In publication PMC3517777, “Phase I study of TP300 in patients with advanced solid tumors with pharmacokinetic, pharmacogenetic and pharmacodynamic analyses” (BMC Cancer, 2012):

Assay: Phase I dose escalation of TP300: toxicity (CTCAE v3.0), DLT, MTD
Assay type: in vivo, human
Experimental: TP300 was given as a 1-hour intravenous (i.v.) infusion, by peripheral venous catheter, every 3 weeks.
The starting dose of 1 mg/m^2 was derived from single and repeat dose toxicity studies and represented one sixth of 0.3 mg/kg (6 mg/m^2), a dose tolerated without evidence of serious, irreversible or life-threatening toxicity in the most sensitive of the two species tested. Doses were doubled in subsequent cohorts until grade ≥2 toxicity was observed, whereupon a modified Fibonacci dose escalation scheme was used. In each cohort the first patient was required to complete 1 cycle before subsequent patients were entered. Intra-patient dose-escalation was not allowed.
The MTD was the dose level below that at which ≥ 2 out of 3–6 patients experienced a DLT. Radiologic assessment of disease was performed every 2 cycles. Patients could remain on treatment if there was evidence of clinical benefit but were withdrawn from the study upon clinical or radiologic progression, unacceptable toxicity or withdrawal of consent.
Toxicity was assessed weekly and graded using the National Cancer Institute Common Toxicity Criteria (CTCAE) version 3.0. DLT was defined as the occurrence of any of the following adverse events: grade 4 thrombocytopenia; febrile neutropenia or grade 4 neutropenia > 5 days duration; grade 4 diarrhoea not reduced to grade 1 within 2 days of appropriate therapy; other gastro-intestinal toxicities (e.g. vomiting, nausea, stomatitis) ≥ grade 3 and not reduced to grade 1 within 2 days of appropriate therapy; any other non-haematologic toxicities ≥ grade 3 (excluding alopecia).

[1] = suspected treatment related adverse events within cycle 1, N = 32, all doses 1-12 mg/m^2

CCCCCN1C=Nc2cccc3nc4c(c1c23)Cn1c-4cc2c(c1=O)COC(=O)[C@@]2(CC)OC(=O)CN(C)C(=O)CN [TP300, glycine,glycyl-N-methyl-,(9S)-9-ethyl-9,10,13,15-tetrahydro-10,13-dioxo-1-pentyl-1H,12H-pyrano[3'',4'':6′,7′]indolizino[2′,1′:5,6]pyrido[4,3,2-de]quinazolin-9-yl ester, hydro-chloride]
DLTs (patients with DLT / patients dosed) (10 mg/m^2): 3/12 | DLTs (patients with DLT / patients dosed) (12 mg/m^2): 2/4 | MTD (maximum tolerated dose) (1-hour i.v. infusion 3-weekly, patients with advanced solid tumors): 10 mg/m^2 | worst grade of diarrhoea (8 patients developed diarrhoea, all doses): ≤ 2 grade | time to diarrhoea after TP300 treatment, average (8 patients with diarrhoea): 9.5 days | time to diarrhoea after TP300 treatment, range (8 patients with diarrhoea): 1 to 27 days | cholinergic effects (32 patients, all doses): no patient experienced cholinergic effects | patients discontinued due to toxicity (32 patients, all doses): 4 patients | treatment-related deaths (32 patients, all doses): no treatment-related deaths | recommended Phase II starting dose (cycle 1): 8 mg/m^2 | recommended Phase II dose on subsequent cycles (escalation if initial treatment is well tolerated): 10 mg/m^2 | Anaemia, All grade [1]: 6 ( 19) No. (%) | Anaemia, Grade 3 [1]: 2 ( 6) No. (%) | Back pain, All grade [1]: 1 ( 3) No. (%) | Back pain, Grade 3 [1]: 1 ( 3) No. (%) | Chills, All grade [1]: 2 ( 6) No. (%) | Chills, Grade 3 [1]: 1 ( 3) No. (%) | Diarrhea, All grade [1]: 8 ( 25) No. (%) | Diarrhea, Grade 3 [1]: 0 (0) No. (%) | Dyspnoea, All grade [1]: 1 ( 3) No. (%) | Dyspnoea, Grade 3 [1]: 1 ( 3) No. (%) | Febrile neutropenia, All grade [1]: 2 ( 6) No. (%) | Febrile neutropenia, Grade 3 [1]: 2 ( 6) No. (%) | Hepatorenal failure, All grade [1]: 1 ( 3) No. (%) | Hepatorenal failure, Grade 3 [1]: 1 ( 3) No. (%) | Lethargy, All grade [1]: 12 ( 38) No. (%) | Lethargy, Grade 3 [1]: 4 ( 13) No. (%) | Leukopenia, All grade [1]: 3 ( 9) No. (%) | Leukopenia, Grade 3 [1]: 3 ( 9) No. (%) | Nausea, All grade [1]: 13 ( 41) No. (%) | Nausea, Grade 3 [1]: 0 (0) No. (%) | Neutropenia, All grade [1]: 6 ( 19) No. (%) | Neutropenia, Grade 3 [1]: 6 ( 19) No. (%) | Neutropenic sepsis, All grade [1]: 1 ( 3) No. (%) | Neutropenic sepsis, Grade 3 [1]: 1 ( 3) No. (%) | Syncope, All grade [1]: 1 ( 3) No. (%) | Syncope, Grade 3 [1]: 1 ( 3) No. (%) | Thrombocytopenia, All grade [1]: 3 ( 9) No. (%) | Thrombocytopenia, Grade 3 [1]: 3 ( 9) No. (%) | Vomitting, All grade [1]: 9 ( 28) No. (%) | Vomitting, Grade 3 [1]: 0 (0) No. (%)
